What was measured:
[1] = test system: L5178Y TK+/− mouse lymphoma cells
Method: The idea was to reproduce the metabolizing conditions prevailing in the liver.
This was followed by a 24-h recovery period when the experiment was performed in the presence of Aroclor-induced rat liver S9 metabolizing mix (at 2% final concentration). […] The nuclei were then stained with Giemsa before counting the micronuclei among 1000 mononucleated cells.

HeLa cells [2] = assay: Toxicity assay: adenylate kinase activity in culture medium; type: cell-based, human; details: 24 h; for Adenylate kinase activity in culture medium: STS 2µM
Method: The toxicity assay was performed 24 h after starting cell treatment. The cell culture supernatant was centrifuged at 6000×g for 10 min to pellet cells and cell debris. One-twentieth of the supernatant was then used to measure adenylate kinase activity according to the supplier’s protocol (Lonza Biosciences, Basel, Switzerland).

HeLa cells [3] = assay: MTT colorimetric toxicity assay; type: cell-based; details: STS 2µM, 24 h
Method: incubated in cell culture medium containing 0.5 mg/ml 3-(4,5-dimethylthiazol-2-yl)-2,5-diphenyltetrazolium bromide (MTT) for 2 h at 37°C. The cells were then incubated for 30 min at 37°C in the solubilization solution (isopropanol/1N HCl 23:1) before collecting the supernatant to measure the absorbance at 540 and 620 nm for the background.
Supplementary Figure 4. […] (A) HeLa cells were incubated with propidium iodide after […]
staurosporine (STS). (B) HeLa cells were incubated with MTT after treatment for 24 h with […]
The results presented are representative of two independent experiments at least. Error bar= S.D., p-values (p) were calculated using Student's t-test. Source data are provided as a Source Data file.
(also on this page, place not known: % dead Colorimetry measure (au) cells of) […]

nonsense mutations = test system: nonsense mutations; set-up: method as in PMID 28096517; details: cited from earlier work

O=P1(N(CCCl)CCCl)NCCCO1 (centres unmarked) [Cyclopho sphamide, cyclophosphamide]
Micronucleated cells [1]: 60

CN[C@@H]1C[C@H]2O[C@@](C)([C@@H]1OC)n1c3ccccc3c3c4c(c5c6ccccc6n2c5c31)C(=O)NC4 [STS, staurosporine, reference compound]
Release of adenylate kinase, in words (HeLa cells [2]): released adenylate kinase | Adenylate kinase activity in culture medium (HeLa cells [2]; average): 1755878 | Adenylate kinase activity in culture medium (HeLa cells [2]; experiment 1): 1822755 | Adenylate kinase activity in culture medium (HeLa cells [2]; experiment 2): 1498272 | Adenylate kinase activity in culture medium (HeLa cells [2]; experiment 3): 1946608 | MTT colorimetry measure (HeLa cells [3]; average): 0.183 au | MTT colorimetry measure (HeLa cells [3]; experiment 1): 0.0455 au | MTT colorimetry measure (HeLa cells [3]; experiment 2): 0.1825 au | MTT colorimetry measure (HeLa cells [3]; experiment 3): 0.321 au

Nc1ncnc(N[C@@H]2O[C@H](CO)[C@@H](O)[C@H]2O)c1[N+](=O)[O-] [clitocine, (2R,3R,4S,5R)-2-[(6-amino-5-nitropyrimidin-4-yl)amino]-5-(hydroxymethyl)oxolane-3,4-diol]
Nonsense mutation correction compared to G418 (nonsense mutations): correct nonsense mutations more efficiently than G418

— article PMC7083880 (Nature Communications, 2020)
